The values below come from patent US20250332300A1 (priority 2024, published 2025).

What all share (format): binding
The target of assay [1] is T1, mouse HER2 (23-653) (Mus musculus, UniProt P70424). Kind of assay: TR-FRET competition assay for peptide potency, mouse HER2. On the set-up: mouse HER2 (23-653) using a Cy5 labeled peptide as a probe; made in house; host or cells: mammalian cells. As to conditions: 0.1 nM mouse HER2, 24 h incubation. For orientation: Time-resolved FRET reads energy transfer from a long-lived donor to a nearby acceptor.

Assay [2] deals with T2, human HER2 (23-652) (Homo sapiens, UniProt P04626). Kind of assay: TR-FRET competition assay for peptide potency, human HER2. On the set-up: towards human HER2 (23-652) and mouse HER2 (23-653); made in house; host or cells: mammalian cells.
Assay [3] concerns the target T1, mouse HER2 (23-653). As to the kind of experiment: Surface plasmon resonance (SPR) for assessment of peptide affinity, mouse HER2. On the set-up: mouse HER2 (23-653) using a Cy5 labeled peptide as a probe; made in house. An excerpt:
Each protein was immobilized either onto a SA sensorchip (Cytiva, BR-1005-31) or CM5 sensorchip (Cytiva, BR-1005-30) to a density of 800-2000 RU.
In general terms: SPR reads the build-up and loss of mass on a sensor chip optically.

The target in assay [4] is T2, human HER2 (23-652). As to the kind of experiment: Surface plasmon resonance (SPR) for assessment of peptide affinity, human HER2. On the set-up: towards human HER2 (23-652) and mouse HER2 (23-653); made in house. Put shortly:
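Binding kinetics fitted from sensorgrams with 280 s peptide association then 3000 s dissociation (30 uL/min), using HER2 (23-652) either directly immobilized (SA/CM5) or anti-Fc-captured; 3 M magnesium chloride used for regeneration.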

The mark [5] stands for this setting: huHER2 TR-FRET IC50, TR-FRET competition with Cy5 labeled peptide probe, 0.1 nM human HER2, 24 h incubation.
Where [6] appears, read: TR-FRET competition with Cy5 labeled peptide probe, read-out: moHER2 TR-FRET IC50.
[7] abbreviates: SPR, mouse HER2 extracellular domain, 25° C., 1:1 binding model, read-out: moHER2-SPR-ONC KD.
Where [8] appears, read: SPR, human HER2 extracellular domain, 25° C., 1:1 binding model, read-out: huHER2-SPR-ONC KD.

Counter-ions that a name gives are not always drawn. Like-named read-outs stand apart in the source and are kept apart here. Starred links: 1 amine or outer side, 2 acyl side, 3 side chain; linkers in the order of their positions; H or OH if unused. Positions of bridges follow the written chain, without caps; N, C: chain ends. Non-standard residues stand in square brackets, D forms with d. Residues, ends and D or L forms follow the SMILES beside them. Nle(4-yne,6-yl) = O=C([C@H](CC#CC[*:3])N[*:1])[*:2]; Trp(5-OH) = N[C@@H](Cc1c[nH]c2ccc(O)cc12)C(=O)O; NMePhe(4-F) = CN[C@@H](Cc1ccc(F)cc1)C(=O)O; NMehPhe = CN[C@@H](CCc1ccccc1)C(=O)O; Aad = N[C@@H](CCCC(=O)O)C(=O)O; Gly(cPr) = N[C@H](C(=O)O)C1CC1; NMehCys = CN[C@@H](CCS)C(=O)O; Ahp(2) = CCCCC[C@H](N)C(=O)O; NMeK = CN[C@@H](CCCCN)C(=O)O; NMeDap = CN[C@@H](CN)C(=O)O; NMeC = CN[C@@H](CS)C(=O)O; NMeS = CN[C@@H](CO)C(=O)O; hCys = N[C@@H](CCS)C(=O)O

For orientation: IC50 means the point on the concentration scale where inhibition reaches its midpoint. Usually Kd stands for the free concentration of one partner at which half of the binding sites on the other are occupied at equilibrium, for simple one-to-one binding.

For the compound `CN1C(=O)[C@H](CO)NC(=O)[C@H](Cc2ccc(O)cc2)NC(=O)[C@@H](N)CC(=O)NC[C@@H](C(=O)N(C)[C@@H](Cc2ccc(F)cc2)C(N)=O)N(C)C(=O)[C@H](C2CC2)NC(=O)[C@H](Cc2c[nH]c3ccccc23)NC(=O)[C@H](Cc2c[nH]c3ccc(O)cc23)NC(=O)[C@H](CO)N(C)C(=O)[C@@H]1CCc1ccccc1` [Example A37, (3S,6S,9S,12S,15S,18S,21S,24S,27S)-9-((1H-indol-3-yl)methyl)-27-amino-N-((S)-1-amino-3-(4-fluorophenyl)-1-oxopropan-2-yl)-6-cyclopropyl-12-((5-hydroxy-1H-indol-3-yl)methyl)-24-(4-hydroxybenzyl)-15,21-bis(hydroxymethyl)-N,4,16,19-tetramethyl-5,8,11,14,17,20,23,26,29-nonaoxo-18-phenethyl-1,4,7,10,13,16,19,22,25-nonaazacyclononacosane-3-carboxamide TFA salt] (H-DYS[NMehPhe][NMeS][Trp(5-OH)]W[Gly(cPr)][NMeDap][NMePhe(4-F)]-NH2; lactam 1-9), the IC50 was over 1000 nM at mouse HER2 (23-653) [1] (moHER2 TR-FRET IC50, TR-FRET competition with Cy5 labeled peptide probe) and 810 nM at human HER2 (23-652) [2] (setting [5]). Besides, the results for the equilibrium dissociation constant (Kd) on mouse HER2 (23-653) [3] and at human HER2 (23-652) [4] were 213 nM and 452 nM, respectively.

Turning to `CN1C(=O)[C@H](CO)NC(=O)[C@H](Cc2ccc(O)cc2)NC(=O)[C@@H](N)CC#CCSC[C@@H](C(=O)N(C)[C@@H](Cc2ccc(F)cc2)C(N)=O)N(C)C(=O)[C@H](C2CC2)NC(=O)[C@H](Cc2c[nH]c3ccccc23)NC(=O)[C@H](Cc2c[nH]c3ccc(O)cc23)NC(=O)[C@H](CO)N(C)C(=O)[C@@H]1CCc1ccccc1` [Example A52, (3R,6S,9S,12S,15S,18S,21S,24S,27S)-9-((1H-indol-3-yl)methyl)-27-amino-N—((S)-1-amino-3-(4-fluorophenyl)-1-oxopropan-2-yl)-6-cyclopropyl-12-((5-hydroxy-1H-indol-3-yl)methyl)-24-(4-hydroxybenzyl)-15,21-bis(hydroxymethyl)-N,4,16,19-tetramethyl-5,8,11,14,17,20,23,26-octaoxo-18-phenethyl-1-thia-4,7,10,13,16,19,22,25-octaazacyclohentriacont-29-yne-3-carboxamide TFA salt] (H-[Nle(4-yne,6-yl)]YS[NMehPhe][NMeS][Trp(5-OH)]W[Gly(cPr)][NMeC][NMePhe(4-F)]-NH2; thioether 1-9), the half-inhibitory concentration (IC50) at mouse HER2 (23-653) [1] (setting [6]) was over 1000 nM; at human HER2 (23-652) [2] (setting [5]), 427 nM; on human HER2 (23-652) [2] (huHER2 TR-FRET IC50, recalculated value achieved after further repetition, value in parentheses (**): recalculated after further repetition), 567 nM. The Kd at mouse HER2 (23-653) [3] (setting [7]) amounted to 570 nM; on human HER2 (23-652) [4], 997 nM.

`CC(=O)NCCCC[C@H]1C(=O)N[C@@H](Cc2c[nH]c3ccc(O)cc23)C(=O)N[C@@H](Cc2c[nH]c3ccccc23)C(=O)N[C@@H](C2CC2)C(=O)N(C)[C@H](C(=O)N(C)[C@@H](Cc2ccc(F)cc2)C(=O)N[C@@H](CCCCNC(=O)c2ccc(F)nc2)C(N)=O)CNC(=O)CCC[C@H](NC(C)=O)C(=O)N[C@@H](Cc2ccc(O)cc2)C(=O)N[C@@H](CO)C(=O)N(C)[C@@H](CCc2ccccc2)C(=O)N1C` [Example F1]: the 50% inhibitory concentration (IC50) on mouse HER2 (23-653) [1] (setting [6]) was 0.2 nM; at human HER2 (23-652) [2] (read-out: huHER2 TR-FRET IC50), under 0.1 nM. Besides, the equilibrium dissociation constant (Kd) on mouse HER2 (23-653) [3] (setting [7]) is 0.3 nM; on human HER2 (23-652) [4] (setting [8]) it was under 0.1 nM.

Regarding `CC(=O)N[C@H]1CCCC(=O)NC[C@@H](C(=O)N(C)[C@@H](Cc2ccc(F)cc2)C(=O)N[C@@H](CCCCNC(=O)CN2CCN(CC(=O)O)CCN(CC(=O)O)CCN(CC(=O)O)CC2)C(N)=O)N(C)C(=O)[C@H]([C@H](C)O)NC(=O)[C@H](Cc2c[nH]c3ccccc23)NC(=O)[C@H](Cc2c[nH]c3ccc(O)cc23)NC(=O)[C@H](CCCCNC(=O)CCO)N(C)C(=O)[C@H](CCc2ccccc2)N(C)C(=O)[C@H](CO)NC(=O)[C@H](Cc2ccc(O)cc2)NC1=O` [Example B7], the IC50 on mouse HER2 (23-653) [1] (setting [6]) was found to be 1.3 nM; at human HER2 (23-652) [2] (read-out: huHER2 TR-FRET IC50) it was 0.4 nM. The Kd at mouse HER2 (23-653) [3] (setting [7]) is 0.8 nM; on human HER2 (23-652) [4] (setting [8]) it was 0.4 nM.

Consider `CC(=O)N[C@H]1CCCC(=O)NC[C@@H](C(=O)N(C)[C@@H](Cc2ccc(F)cc2)C(=O)N[C@@H](CCCCNC(=O)CN2CCN(CC(=O)O)CCN(CC(=O)O)CCN(CC(=O)O)CC2)C(N)=O)N(C)C(=O)[C@H]([C@H](C)O)NC(=O)[C@H](Cc2c[nH]c3ccccc23)NC(=O)[C@H](Cc2c[nH]c3ccc(O)cc23)NC(=O)[C@H](CCCCNC(=O)CO)N(C)C(=O)[C@H](CCc2ccccc2)N(C)C(=O)[C@H](CO)NC(=O)[C@H](Cc2ccc(O)cc2)NC1=O` [Example B6], for which the half-maximal inhibitory concentration (IC50) at mouse HER2 (23-653) [1] (setting [6]) is 1.1 nM; at human HER2 (23-652) [2] (read-out: huHER2 TR-FRET IC50), 0.3 nM. Moreover, the Kd came out at 1.2 nM at mouse HER2 (23-653) [3] (setting [7]) and 0.5 nM on human HER2 (23-652) [4] (setting [8]).

For the compound `CN1C(=O)[C@H](CO)NC(=O)[C@H](Cc2ccc(O)cc2)NC(=O)[C@@H](N)Cc2cccc(c2)CC(=O)NC[C@@H](C(=O)N(C)[C@@H](Cc2ccc(F)cc2)C(N)=O)N(C)C(=O)[C@H](C2CC2)NC(=O)[C@H](Cc2c[nH]c3ccccc23)NC(=O)[C@H](Cc2c[nH]c3ccc(O)cc23)NC(=O)[C@H](CO)N(C)C(=O)[C@@H]1CCc1ccccc1` [Example A31, (6S,9S,12S,15S,18S,21S,24S,27S,30S)-12-((1H-indol-3-yl)methyl)-30-amino-N—((S)-1-amino-3-(4-fluorophenyl)-1-oxopropan-2-yl)-9-cyclopropyl-15-((5-hydroxy-1H-indol-3-yl)methyl)-27-(4-hydroxybenzyl)-18,24-bis(hydroxymethyl)-N,7,19,22-tetramethyl-3,8,11,14,17,20,23,26,29-nonaoxo-21-phenethyl-4,7,10,13,16,19,22,25,28-nonaaza-1 (1,3)-benzenacyclohentriacontaphane-6-carboxamide TFA salt], the half-maximal inhibitory concentration (IC50) at mouse HER2 (23-653) [1] (setting [6]) is over 1000 nM; at human HER2 (23-652) [2] (read-out: huHER2 TR-FRET IC50), 844 nM. For the same compound, the equilibrium dissociation constant (Kd) on mouse HER2 (23-653) [3] (setting [7]) turned out to be 755 nM; at human HER2 (23-652) [4] (setting [8]), 485 nM.

Turning to `CC(=O)NCCCC[C@H]1C(=O)N[C@@H](Cc2c[nH]c3ccc(O)cc23)C(=O)N[C@@H](Cc2c[nH]c3ccccc23)C(=O)N[C@@H](C2CC2)C(=O)N(C)[C@H](C(=O)N(C)[C@@H](Cc2ccc(F)cc2)C(N)=O)CCSSCC[C@H](N)C(=O)N[C@@H](Cc2ccc(O)cc2)C(=O)N[C@@H](CO)C(=O)N(C)[C@@H](CCc2ccccc2)C(=O)N1C` [Example A55, (5S,8S,11S,14S,17S,20S,23S,26S,29S)-11-((1H-indol-3-yl)methyl)-17-(4-acetamidobutyl)-29-amino-N-((S)-1-amino-3-(4-fluorophenyl)-1-oxopropan-2-y1)-8-cyclopropyl-14-((5-hydroxy-1H-indol-3-yl)methyl)-26-(4-hydroxybenzyl)-23-(hydroxymethyl)-N,6,18,21-tetramethyl-7,10,13,16,19,22,25,28-octaoxo-20-phenethyl-1,2-dithia-6,9,12,15,18,21,24,27-octaazacyclohentriacontane-5-carboxamide TFA salt] (H-[hCys]YS[NMehPhe][NMeK](Ac)[Trp(5-OH)]W[Gly(cPr)][NMehCys][NMePhe(4-F)]-NH2; disulfide 1-9), the half-maximal inhibitory concentration (IC50) on mouse HER2 (23-653) [1] (setting [6]) worked out at 287 nM; at human HER2 (23-652) [2] (read-out: huHER2 TR-FRET IC50) it was 97 nM. The dissociation constant Kd on mouse HER2 (23-653) [3] (setting [7]) is 148 nM; on human HER2 (23-652) [4] (setting [8]), 178 nM.

With `CCCCC[C@@H]1NC(=O)[C@H](CCCCNC(C)=O)N(C)C(=O)[C@H](CCc2ccccc2)N(C)C(=O)[C@H](CO)NC(=O)[C@H](Cc2ccc(O)cc2)NC(=O)[C@@H](NC(C)=O)CCCC(=O)NC[C@@H](C(=O)N(C)[C@@H](Cc2ccc(F)cc2)C(N)=O)N(C)C(=O)[C@H](C2CC2)NC(=O)[C@H](Cc2c[nH]c3ccccc23)NC1=O` [Example A11, (3S,6S,9S,12S,15S,18S,21S,24S,27S)-9-((1H-indol-3-yl)methyl)-27-acetamido-15-(4-acetamidobutyl)-N-((S)-1-amino-3-(4-fluorophenyl)-1-oxopropan-2-yl)-6-cyclopropyl-24-(4-hydroxybenzyl)-21-(hydroxymethyl)-N,4,16,19-tetramethyl-5,8,11,14,17,20,23,26,31-nonaoxo-12-pentyl-18-phenethyl-1,4,7,10,13,16,19,22,25-nonaazacyclohentriacontane-3-carboxamide] (Ac-[Aad]YS[NMehPhe][NMeK](Ac)[Ahp(2)]W[Gly(cPr)][NMeDap][NMePhe(4-F)]-NH2; lactam 1-9), the IC50 on mouse HER2 (23-653) [1] (setting [6]) was over 1000 nM; at human HER2 (23-652) [2] (read-out: huHER2 TR-FRET IC50), 966 nM. The dissociation constant Kd stood at 786 nM at mouse HER2 (23-653) [3] (setting [7]) and 445 nM on human HER2 (23-652) [4] (setting [8]).
